Read-outs that look alike come from different tables or passages of the source.
What was measured:
Test in all cases: biochemical
[1] = target: T1, panel of 374 wild-type kinases (Homo sapiens, UniProt P17252); details: read-out: % Enzyme Activity (relative to DMSO controls), kinase PKCa
T1 construct: purchased Reaction Biology Corporation

[2] = target: T2, panel of 374 wild-type kinases (Homo sapiens, UniProt P43403); details: read-out: % Enzyme Activity (relative to DMSO controls), kinase ZAP70
T2 construct: purchased Reaction Biology Corporation
T2 sequence (P43403 1-619): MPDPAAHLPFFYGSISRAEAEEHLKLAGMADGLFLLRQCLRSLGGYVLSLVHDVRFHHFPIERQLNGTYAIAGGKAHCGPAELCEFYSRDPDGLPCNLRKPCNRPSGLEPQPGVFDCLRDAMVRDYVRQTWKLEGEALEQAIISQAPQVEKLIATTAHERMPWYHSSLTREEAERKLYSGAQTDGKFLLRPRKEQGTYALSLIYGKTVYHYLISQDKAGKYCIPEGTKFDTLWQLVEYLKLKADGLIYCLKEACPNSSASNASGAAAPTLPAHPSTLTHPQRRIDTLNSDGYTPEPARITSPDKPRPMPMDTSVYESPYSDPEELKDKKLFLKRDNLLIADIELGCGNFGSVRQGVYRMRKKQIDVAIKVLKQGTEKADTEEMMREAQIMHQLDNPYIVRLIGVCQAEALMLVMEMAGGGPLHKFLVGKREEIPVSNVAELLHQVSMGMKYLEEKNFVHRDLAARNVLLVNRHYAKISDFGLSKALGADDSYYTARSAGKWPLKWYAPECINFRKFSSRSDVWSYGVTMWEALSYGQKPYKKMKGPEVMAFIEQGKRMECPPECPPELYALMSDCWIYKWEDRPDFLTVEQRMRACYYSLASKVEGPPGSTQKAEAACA

[3] = target: T3, panel of 374 wild-type kinases (Homo sapiens, UniProt Q06418); details: read-out: % Enzyme Activity (relative to DMSO controls), kinase TYRO3/SKY
T3 construct: purchased Reaction Biology Corporation
T3 sequence (Q06418 41-890): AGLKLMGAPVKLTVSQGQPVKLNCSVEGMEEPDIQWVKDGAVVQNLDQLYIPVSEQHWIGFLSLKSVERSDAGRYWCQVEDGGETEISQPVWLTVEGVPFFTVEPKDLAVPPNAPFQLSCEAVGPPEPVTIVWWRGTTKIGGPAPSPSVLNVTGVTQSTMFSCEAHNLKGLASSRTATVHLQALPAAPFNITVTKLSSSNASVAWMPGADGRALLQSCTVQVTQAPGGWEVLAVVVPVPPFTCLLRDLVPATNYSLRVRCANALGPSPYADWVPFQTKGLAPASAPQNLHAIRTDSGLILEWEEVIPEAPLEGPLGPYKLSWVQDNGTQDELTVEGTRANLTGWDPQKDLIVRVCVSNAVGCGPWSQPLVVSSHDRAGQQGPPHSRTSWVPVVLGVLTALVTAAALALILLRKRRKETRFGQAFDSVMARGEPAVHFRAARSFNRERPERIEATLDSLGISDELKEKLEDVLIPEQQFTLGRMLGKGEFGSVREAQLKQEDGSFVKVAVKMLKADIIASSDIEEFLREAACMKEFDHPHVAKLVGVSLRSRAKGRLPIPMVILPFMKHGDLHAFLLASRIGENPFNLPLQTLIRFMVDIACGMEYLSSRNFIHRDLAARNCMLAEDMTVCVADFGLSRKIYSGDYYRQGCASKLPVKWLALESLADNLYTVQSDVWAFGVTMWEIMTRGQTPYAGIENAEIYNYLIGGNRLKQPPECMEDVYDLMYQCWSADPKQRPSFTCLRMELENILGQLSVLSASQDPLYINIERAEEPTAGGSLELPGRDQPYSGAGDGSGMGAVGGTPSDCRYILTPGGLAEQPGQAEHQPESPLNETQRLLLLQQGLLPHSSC

[4] = target: T4, panel of 374 wild-type kinases (Homo sapiens, UniProt Q16513)
T4 construct: purchased Reaction Biology Corporation

[5] = target: T5, panel of 374 wild-type kinases (Homo sapiens, UniProt Q16816); details: read-out: % Enzyme Activity (relative to DMSO controls), kinase PHKg1
T5 construct: purchased Reaction Biology Corporation

[6] = target: T6, panel of 374 wild-type kinases (Homo sapiens, UniProt Q96BR1); details: read-out: % Enzyme Activity (relative to DMSO controls), kinase SGK3/SGKL
T6 construct: purchased Reaction Biology Corporation
T6 sequence (Q96BR1 1-496): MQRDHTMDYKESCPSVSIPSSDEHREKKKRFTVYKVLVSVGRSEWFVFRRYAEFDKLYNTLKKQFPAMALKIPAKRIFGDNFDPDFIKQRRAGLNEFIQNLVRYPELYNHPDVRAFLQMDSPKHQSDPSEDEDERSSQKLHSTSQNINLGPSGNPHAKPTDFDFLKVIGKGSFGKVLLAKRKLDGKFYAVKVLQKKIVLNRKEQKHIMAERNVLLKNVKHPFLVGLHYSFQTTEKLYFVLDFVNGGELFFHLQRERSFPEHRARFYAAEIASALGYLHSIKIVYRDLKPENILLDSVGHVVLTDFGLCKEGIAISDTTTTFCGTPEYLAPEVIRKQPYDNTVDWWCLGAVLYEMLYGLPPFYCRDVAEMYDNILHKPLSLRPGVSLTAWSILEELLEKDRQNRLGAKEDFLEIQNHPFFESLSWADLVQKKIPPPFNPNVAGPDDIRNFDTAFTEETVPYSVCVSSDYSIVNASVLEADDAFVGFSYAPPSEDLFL

[7] = target: T7, panel of 374 wild-type kinases (Homo sapiens, UniProt Q96RR4); details: read-out: % Enzyme Activity (relative to DMSO controls), CAMKK2
T7 construct: purchased Reaction Biology Corporation

[8] = target: T8, panel of 374 wild-type kinases (Homo sapiens, UniProt Q9H0K1); details: read-out: % Enzyme Activity (relative to DMSO controls), kinase SIK2
T8 construct: purchased Reaction Biology Corporation

[9] = target: T9, panel of 374 wild-type kinases (Homo sapiens, UniProt Q9HBH9); details: read-out: % Enzyme Activity (relative to DMSO controls), MNK2
T9 construct: purchased Reaction Biology Corporation

[10] = target: T10, panel of 374 wild-type kinases (Homo sapiens, UniProt Q9HCP0); details: read-out: % Enzyme Activity (relative to DMSO controls), CK1g1
T10 construct: purchased Reaction Biology Corporation

[11] = target: T11, panel of 374 wild-type kinases (Homo sapiens, UniProt Q9Y463); details: DYRK1B, read-out: % Enzyme Activity (relative to DMSO controls)
T11 construct: purchased Reaction Biology Corporation
T11 sequence (Q9Y463 whole entry): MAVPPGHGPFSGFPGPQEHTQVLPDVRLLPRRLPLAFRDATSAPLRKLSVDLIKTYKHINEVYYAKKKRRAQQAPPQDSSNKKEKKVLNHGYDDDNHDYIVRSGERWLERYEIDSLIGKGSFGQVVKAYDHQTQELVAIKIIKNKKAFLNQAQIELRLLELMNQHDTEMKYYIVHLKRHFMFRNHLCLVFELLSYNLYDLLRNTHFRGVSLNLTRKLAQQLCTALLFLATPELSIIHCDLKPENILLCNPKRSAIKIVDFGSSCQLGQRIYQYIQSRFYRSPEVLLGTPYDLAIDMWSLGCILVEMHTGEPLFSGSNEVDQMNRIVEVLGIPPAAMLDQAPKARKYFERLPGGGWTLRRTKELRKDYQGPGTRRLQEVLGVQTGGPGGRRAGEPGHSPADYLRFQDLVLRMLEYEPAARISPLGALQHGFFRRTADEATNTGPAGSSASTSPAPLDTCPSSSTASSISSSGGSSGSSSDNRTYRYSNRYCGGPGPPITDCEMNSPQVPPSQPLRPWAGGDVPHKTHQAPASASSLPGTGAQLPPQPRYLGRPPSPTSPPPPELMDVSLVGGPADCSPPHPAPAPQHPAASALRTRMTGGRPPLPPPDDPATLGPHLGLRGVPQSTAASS

T4 sequence (Q16513 whole entry): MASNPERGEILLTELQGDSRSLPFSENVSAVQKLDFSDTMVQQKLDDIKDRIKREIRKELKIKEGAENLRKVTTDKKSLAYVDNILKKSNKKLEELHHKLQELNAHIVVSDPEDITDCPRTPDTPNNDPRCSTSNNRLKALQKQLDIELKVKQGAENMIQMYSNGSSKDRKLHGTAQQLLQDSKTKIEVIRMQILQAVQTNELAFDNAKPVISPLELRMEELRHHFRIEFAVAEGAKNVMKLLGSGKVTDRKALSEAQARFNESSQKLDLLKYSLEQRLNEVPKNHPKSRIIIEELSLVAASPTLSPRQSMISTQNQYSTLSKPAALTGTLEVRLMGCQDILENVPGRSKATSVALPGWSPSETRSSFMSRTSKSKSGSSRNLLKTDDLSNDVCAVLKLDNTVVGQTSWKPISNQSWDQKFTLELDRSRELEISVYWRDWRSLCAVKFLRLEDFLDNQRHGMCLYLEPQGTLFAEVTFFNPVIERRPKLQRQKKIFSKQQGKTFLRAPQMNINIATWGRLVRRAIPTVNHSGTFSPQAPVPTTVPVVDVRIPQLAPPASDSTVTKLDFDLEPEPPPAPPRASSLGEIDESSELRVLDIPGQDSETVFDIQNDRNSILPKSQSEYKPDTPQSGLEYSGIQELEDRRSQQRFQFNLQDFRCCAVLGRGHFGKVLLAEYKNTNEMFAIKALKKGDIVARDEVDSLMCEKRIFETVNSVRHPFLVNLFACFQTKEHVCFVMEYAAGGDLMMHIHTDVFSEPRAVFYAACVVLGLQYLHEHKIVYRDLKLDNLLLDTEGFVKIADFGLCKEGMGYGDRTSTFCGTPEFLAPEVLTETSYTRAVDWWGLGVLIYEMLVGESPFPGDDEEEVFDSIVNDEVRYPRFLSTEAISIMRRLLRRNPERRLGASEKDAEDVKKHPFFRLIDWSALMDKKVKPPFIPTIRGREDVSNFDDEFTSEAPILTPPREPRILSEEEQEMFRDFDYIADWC
T9 sequence (Q9HBH9 whole entry): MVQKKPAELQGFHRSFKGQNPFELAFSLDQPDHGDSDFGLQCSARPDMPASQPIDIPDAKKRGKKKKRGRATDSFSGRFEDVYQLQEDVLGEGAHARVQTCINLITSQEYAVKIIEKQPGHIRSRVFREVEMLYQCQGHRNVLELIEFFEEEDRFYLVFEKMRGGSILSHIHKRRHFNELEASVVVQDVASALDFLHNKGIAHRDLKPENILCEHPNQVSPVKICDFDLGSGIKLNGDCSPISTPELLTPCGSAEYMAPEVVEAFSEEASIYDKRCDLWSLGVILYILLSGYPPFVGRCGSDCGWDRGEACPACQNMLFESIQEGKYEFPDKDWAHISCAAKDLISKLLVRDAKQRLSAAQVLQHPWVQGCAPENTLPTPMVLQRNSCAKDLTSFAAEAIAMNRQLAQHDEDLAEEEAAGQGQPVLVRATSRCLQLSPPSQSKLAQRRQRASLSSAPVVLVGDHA
T5 sequence (Q16816 whole entry): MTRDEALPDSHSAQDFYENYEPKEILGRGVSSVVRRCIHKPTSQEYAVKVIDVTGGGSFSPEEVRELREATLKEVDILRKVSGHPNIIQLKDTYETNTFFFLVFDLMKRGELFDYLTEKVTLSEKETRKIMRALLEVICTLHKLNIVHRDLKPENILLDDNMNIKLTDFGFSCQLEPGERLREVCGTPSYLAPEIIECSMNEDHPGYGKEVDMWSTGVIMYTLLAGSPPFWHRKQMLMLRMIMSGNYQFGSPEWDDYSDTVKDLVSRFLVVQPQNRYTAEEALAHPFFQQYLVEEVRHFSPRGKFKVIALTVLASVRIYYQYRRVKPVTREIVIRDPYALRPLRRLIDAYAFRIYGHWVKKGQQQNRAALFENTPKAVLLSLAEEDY
T8 sequence (Q9H0K1 whole entry): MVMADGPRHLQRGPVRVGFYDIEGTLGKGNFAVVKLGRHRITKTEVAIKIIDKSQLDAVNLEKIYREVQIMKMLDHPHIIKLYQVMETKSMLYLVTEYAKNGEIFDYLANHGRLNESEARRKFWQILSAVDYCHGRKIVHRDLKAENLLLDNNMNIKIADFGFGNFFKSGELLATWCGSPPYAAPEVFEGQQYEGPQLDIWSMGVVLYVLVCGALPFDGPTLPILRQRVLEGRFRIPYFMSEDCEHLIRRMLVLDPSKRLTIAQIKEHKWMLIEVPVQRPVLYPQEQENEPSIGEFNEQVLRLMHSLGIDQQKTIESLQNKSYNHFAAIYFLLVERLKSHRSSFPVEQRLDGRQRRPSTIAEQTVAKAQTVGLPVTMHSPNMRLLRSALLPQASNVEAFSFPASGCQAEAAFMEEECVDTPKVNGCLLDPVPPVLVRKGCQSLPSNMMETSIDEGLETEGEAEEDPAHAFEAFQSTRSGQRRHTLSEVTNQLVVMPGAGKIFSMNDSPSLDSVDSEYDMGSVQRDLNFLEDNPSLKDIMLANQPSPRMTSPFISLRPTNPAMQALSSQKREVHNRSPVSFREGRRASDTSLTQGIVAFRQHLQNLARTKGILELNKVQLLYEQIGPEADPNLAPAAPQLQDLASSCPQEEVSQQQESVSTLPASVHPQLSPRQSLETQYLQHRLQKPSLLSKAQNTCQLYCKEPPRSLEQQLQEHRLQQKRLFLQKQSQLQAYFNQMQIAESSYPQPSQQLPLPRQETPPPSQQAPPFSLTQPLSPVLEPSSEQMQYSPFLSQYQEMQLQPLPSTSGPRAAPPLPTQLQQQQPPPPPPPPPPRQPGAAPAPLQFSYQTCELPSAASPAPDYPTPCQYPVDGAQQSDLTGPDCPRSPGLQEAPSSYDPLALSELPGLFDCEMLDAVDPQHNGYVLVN
T7 sequence (Q96RR4 whole entry): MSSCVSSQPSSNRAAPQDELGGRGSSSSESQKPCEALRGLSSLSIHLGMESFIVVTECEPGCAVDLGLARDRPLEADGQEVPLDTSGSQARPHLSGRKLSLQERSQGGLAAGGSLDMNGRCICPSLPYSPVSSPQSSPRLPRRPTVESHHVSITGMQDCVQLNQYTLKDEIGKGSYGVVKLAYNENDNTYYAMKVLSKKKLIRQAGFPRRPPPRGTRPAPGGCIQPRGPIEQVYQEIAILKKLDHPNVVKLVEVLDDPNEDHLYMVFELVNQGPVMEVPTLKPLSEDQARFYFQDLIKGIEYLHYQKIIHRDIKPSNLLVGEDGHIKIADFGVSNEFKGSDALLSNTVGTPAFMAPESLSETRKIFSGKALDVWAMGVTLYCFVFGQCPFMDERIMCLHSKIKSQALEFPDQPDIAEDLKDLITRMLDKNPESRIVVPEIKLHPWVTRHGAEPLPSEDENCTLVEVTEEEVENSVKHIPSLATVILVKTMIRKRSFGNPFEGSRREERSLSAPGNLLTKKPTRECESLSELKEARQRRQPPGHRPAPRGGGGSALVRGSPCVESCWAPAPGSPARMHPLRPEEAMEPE

In the case of `O=C(Nc1cnn(-c2csc(C(=O)NC3COC3)c2)c1)Nc1ccccc1Cl` [Compound 17, 4-(4-(3-(2-chlorophenyl)ureido)-1H-pyrazol-1-yl)-N-(oxetan-3-yl)thiophene-2-carboxamide], the remaining activity at 5 µM [1] is reported as 101%, the remaining activity at 5 µM [2] is reported as 102% and the remaining activity at 5 µM [3] is reported as 75.4%. It also gave a remaining activity at 5 µM ([4]; read-out: % Enzyme Activity (relative to DMSO controls), kinase PKN2/PRK2) of 112%, a remaining activity at 5 µM [5] of 102% and a remaining activity at 5 µM [6] of 93.8%. It also gave a remaining activity at 5 µM [7] of 91.1%, a remaining activity at 5 µM [8] of 97% and a remaining activity at 5 µM [9] of 99.3%. It also gave a remaining activity at 5 µM [10] of 99% and a remaining activity at 5 µM [11] of 87%.

`Cc1sc(C(=O)NC2COC2)cc1-n1cc(NC(=O)Nc2c(F)cccc2Cl)cn1` [Compound 27, 4-(4-(3-(2-chloro-6-fluorophenyl)ureido)-1H-pyrazol-1-yl)-5-methyl-N-(oxetan-3-yl)thiophene-2-carboxamide] was tested, and the remaining activity at 10 µM ([1]; 10 uM) was 95.9%, the remaining activity at 10 µM ([2]; 10 uM) was 103% and the remaining activity at 10 µM ([3]; 10 uM) was 98.8%. It also gave a remaining activity at 10 µM ([4]; read-out: % Enzyme Activity (relative to DMSO controls), kinase PKN2/PRK2, 10 uM) of 87.1%, a remaining activity at 10 µM ([5]; 10 uM) of 84% and a remaining activity at 10 µM ([6]; 10 uM) of 90.1%. For the same compound, the remaining activity at 10 µM ([7]; 10 uM) was 111%, the remaining activity at 10 µM ([8]; 10 uM) was 89.8% and the remaining activity at 10 µM ([9]; 10 uM) was 83.4%. It also gave a remaining activity at 10 µM ([10]; 10 uM) of 101% and a remaining activity at 10 µM ([11]; 10 uM) of 105%.

`O=C(Nc1cnn(-c2csc(C(=O)NC3COC3)c2)c1)Nc1c(F)cccc1Cl` [Compound 25, 4-(4-(3-(2-chloro-6-fluorophenyl)ureido)-1H-pyrazol-1-yl)-N-(oxetan-3-yl)thiophene-2-carboxamide] gave a remaining activity at 5 µM [1] of 90.7%, a remaining activity at 5 µM [2] of 104% and a remaining activity at 5 µM [3] of 68.4%. The remaining activity at 5 µM ([4]; kinase PKN2/PRK2, read-out: % Enzyme Activity (relative to DMSO controls)) was 105%, the remaining activity at 5 µM [5] was 91.2% and the remaining activity at 5 µM [6] was 95.3%. It also gave a remaining activity at 5 µM [7] of 81%, a remaining activity at 5 µM [8] of 95.8% and a remaining activity at 5 µM [9] of 90.8%. For the same compound, the remaining activity at 5 µM [10] was 102% and the remaining activity at 5 µM [11] was 82.8%.

Reference: patent publication US20240246942A1, “KINASE INHIBITORS FOR THE TREATMENT OF NEURODEGENERATIVE DISEASES” (priority 2020, published 2024)
